Reference: PMC5606850, “Acidic C-terminal domains autoregulate the RNA chaperone Hfq” (eLife, 2017)
“Also recorded” adds a separate entry of the source.

Test system: linear pUC19 DNA
Test: Hfq binding to linear pUC19 DNA, agarose gel mobility shift
Details: 0–3.3 μM Hfq hexamer, 6 nM linear pUC19, 25 °C, 1.5% agarose
Experimental: Figure 5. CTD and RNAs inhibit DNA binding to Hfq by obstructing the basic rim patch. (A, B) Agarose gel electrophoretic mobility shift assays of 0–3.3 μM hexamer Hfq102, Hfq102-R16A, Hfq65 or Hfq65-R16A binding to 6 nM linear pUC19 DNA (2635 nts) at 25°C, stained with SYBR Gold. Hfq65 forms large aggregates that fail to enter the gel (Figure 5—figure supplement 1). (C, D) Line densitometry of DNA migration in (A, B). Free pUC19 (no Hfq) is shown in light grey. Samples with increasing Hfq concentration are shown in darker shades of grey. (E, F) RNA competition. Complexes of 0.5 μM Hfq102 hexamer and 6 nM linear pUC19 (black) were challenged by 0–2 μM RNA or DNA competitor (darker shades of red). pUC19 control in the absence of Hfq is shown in light grey. Icons indicate the binding surface for each competitor. See Figure 5—figure supplement 2 for gel images. Figure 5—figure supplement 1. Hfq CTD prevents aggregation with DNA. (A) Protease assay. 3.5 µM Hfq hexamer incubated with 6 nM linear (L) plus relaxed circular (N) pUC19 DNA at 25°C, for 30 min, in 50 mM Tris-HCl pH 7.5 and 10 mM CaCl2. The samples were divided in two. One set was diluted with a small amount of buffer and incubated at 25°C for an additional 2 hr. The second set was brought to 0.5% SDS, and 0.4 U Proteinase K (NEB) was added, followed by incubation at 50°C for an additional 2 hr. Loading dye was added to all samples just before they were loaded onto a native gel. […] Digestion of Hfq65 and Hfq65-R16A with Proteinase K liberates DNA from Hfq•DNA aggregates, allowing it to be detected (lanes 9 and 10). (B) Pelleting assay. 3.5 µM Hfq hexamer was incubated with 15 nM 1000 bp DNA (Thermo Scientific) at 25°C for 30 min in 50 mM Tris-HCl pH 7.5. Hfq·DNA aggregates were pelleted by centrifugation at 20,000 × g, 4°C, for 30 min. Supernatants were removed and split in two. The pellet and half the supernatant were brought to 1 M NaCl, and the Hfq·DNA aggregates were further disrupted by phenol-chloroform extraction, before all of the samples were loaded on an agarose gel. […] The small proportion of Hfq65·DNA complexes remaining in the supernatant were only detected in the gel after treatment with salt. […] Competition of Hfq-DNA interactions by small RNAs. EMSAs of 0.5 μM Hfq102 hexamer binding to 6 nM linearized pUC19 plasmid, that were competed with 0.1–2 μM RNAs or DNA at 30°C. Gels were run in a cold room. […]
Samples (10 µL) containing linear pUC19 (0.145 nmol bp), 0–3.333 µM Hfq hexamer, in 40 mM Tris-HCl pH 7.5, 0.14 mM EDTA, 35 mM NH4Cl, 3.7% (v/v) glycerol, 0.05% (w/v) bromophenol blue were incubated at 25°C for 30 min. […] The fluorescence intensity was measured on a line from the bottom edge of the well through the middle of the lane to visualize the migration of pUC19. […]

Substance	binding to linear pUC19 DNA (gel mobility)	binding to linear pUC19 DNA (gel mobility) (listed as R16A)
Hfq65: truncated E. coli Hfq variant lacking the CTD	At higher protein concentrations, the DNA formed aggregates that were too large to enter the gel	
Hfq65-R16A	rescued the formation of insoluble aggregates; also recorded: complexes migrated more slowly than those formed by similar concentrations of Hfq102	lowered the maximum gel retardation and increased the intensity of the ‘smear’
Hfq102: full-length E. coli Hfq	The mobility of the DNA-Hfq complexes decreased with added Hfq102	
